Source: ChEMBL document CHEMBL1151284, “Antimycobacterial scalarane-based sesterterpenes from the Red Sea sponge Hyrtios erecta” (2005)

Tested on: Mycobacterium tuberculosis
Assay: Antimycobacterial activity against Mycobacterium tuberculosis H37Rv ATCC 27294 at 6.25 uM by microplate alamar blue assay
Format: functional

Row | SMILES | inhibition at 6.25 µM [%]
1 | CC1(C)CCC[C@]2(C)[C@H]3C[C@@H](O)[C@]4(C)[C@H]5COC(=O)C5=CC[C@H]4[C@]3(C)CC[C@@H]12 | 16
2 | CC(=O)O[C@H]1C[C@H]2[C@]3(C)CC[C@H]4C(C)(C)CCC[C@]4(C)[C@H]3C[C@@H](O)[C@]2(C)[C@H]2OC(=O)C=C12 | 40
3 | CC(=O)O[C@H]1CC[C@]2(C)[C@H]3C[C@@H](O)[C@]4(C)C5=C(CC[C@H]4[C@]3(C)CC[C@H]2C1(C)C)COC5=O | 13
4 | CC(=O)O[C@H]1C[C@H]2[C@]3(C)CC[C@H]4C(C)(C)CCC[C@]4(C)[C@H]3C[C@@H](O)[C@]2(C)C2=C1COC2=O [SESTERSTATIN 7] | 63
